ChEMBL document CHEMBL2029277, “Discovery of XL413, a potent and selective CDC7 inhibitor” (Bioorg Med Chem Lett, 2012)
pIC50: −log10 of the molar value.

Columns and labels:
[1] = target: T1, Cell division cycle 7-related protein kinase (Homo sapiens, UniProt O00311); assay: Inhibition of N-terminus Myc-tagged human CDC7 expressed in Escherichia coli by chemiluminescence assay in presence of ATP
[2] = target: Casein kinase II alpha/beta (Homo sapiens, UniProt P68400); assay: Inhibition of human tertrameric CK2alphabeta holoenzyme using casein as substrate after 1 to 2 hrs by chemiluminescence assay in presence of 2 uM ATP; assay type: protein-complex assay
Casein kinase II alpha/beta, sequence (P67870 whole entry): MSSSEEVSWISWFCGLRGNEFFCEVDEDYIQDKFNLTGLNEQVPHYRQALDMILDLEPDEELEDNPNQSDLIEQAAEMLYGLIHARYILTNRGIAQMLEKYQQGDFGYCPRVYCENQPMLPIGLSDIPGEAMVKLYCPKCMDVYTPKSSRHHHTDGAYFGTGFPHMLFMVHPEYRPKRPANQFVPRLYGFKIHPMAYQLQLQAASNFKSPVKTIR
Casein kinase II alpha/beta, sequence (P68400 whole entry): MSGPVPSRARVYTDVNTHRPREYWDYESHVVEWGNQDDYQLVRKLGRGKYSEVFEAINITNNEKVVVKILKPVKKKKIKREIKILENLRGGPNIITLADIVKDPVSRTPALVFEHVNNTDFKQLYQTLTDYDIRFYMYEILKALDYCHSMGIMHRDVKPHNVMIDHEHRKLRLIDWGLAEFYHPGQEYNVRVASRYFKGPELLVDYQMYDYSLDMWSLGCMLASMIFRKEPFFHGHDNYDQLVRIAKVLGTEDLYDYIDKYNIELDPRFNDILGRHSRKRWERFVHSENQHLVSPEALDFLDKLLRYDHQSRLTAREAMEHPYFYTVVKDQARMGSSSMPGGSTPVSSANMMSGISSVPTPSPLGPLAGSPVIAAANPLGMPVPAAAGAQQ

[3] = target: Serine/threonine-protein kinase pim-1 (Homo sapiens, UniProt P11309); assay: Inhibition of N-terminus His-tagged human PIM1 expressed in Escherichia coli using AKRRRLSA as substrate after 1 to 2 hrs by chemiluminescence assay
Serine/threonine-protein kinase pim-1, sequence (P11309 whole entry): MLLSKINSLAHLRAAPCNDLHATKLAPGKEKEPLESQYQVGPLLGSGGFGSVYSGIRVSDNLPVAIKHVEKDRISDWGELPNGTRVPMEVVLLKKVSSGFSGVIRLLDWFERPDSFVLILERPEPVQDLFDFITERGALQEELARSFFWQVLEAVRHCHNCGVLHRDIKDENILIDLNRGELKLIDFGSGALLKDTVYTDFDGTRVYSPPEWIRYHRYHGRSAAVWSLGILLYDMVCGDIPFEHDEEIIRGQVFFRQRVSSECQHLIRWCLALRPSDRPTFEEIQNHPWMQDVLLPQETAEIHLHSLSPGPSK

[4] = target: T1, Cell division cycle 7-related protein kinase; assay: Inhibition of CDC7 in human MDA-MB-231T cells assessed as inhibition of MCM2 phosphorylation at Ser53 after 4 hrs; assay type: cell-based
[5] = Plasma concentration in mouse at 100 mg/kg, po measured after 1 hr; assay type: ADME, organism-based; set-up: dose 100 mg/kg, route oral
[6] = Plasma concentration in mouse at 100 mg/kg, po measured after 4 hrs; assay type: ADME, organism-based; set-up: dose 100 mg/kg, route oral

T1 sequence (O00311 whole entry): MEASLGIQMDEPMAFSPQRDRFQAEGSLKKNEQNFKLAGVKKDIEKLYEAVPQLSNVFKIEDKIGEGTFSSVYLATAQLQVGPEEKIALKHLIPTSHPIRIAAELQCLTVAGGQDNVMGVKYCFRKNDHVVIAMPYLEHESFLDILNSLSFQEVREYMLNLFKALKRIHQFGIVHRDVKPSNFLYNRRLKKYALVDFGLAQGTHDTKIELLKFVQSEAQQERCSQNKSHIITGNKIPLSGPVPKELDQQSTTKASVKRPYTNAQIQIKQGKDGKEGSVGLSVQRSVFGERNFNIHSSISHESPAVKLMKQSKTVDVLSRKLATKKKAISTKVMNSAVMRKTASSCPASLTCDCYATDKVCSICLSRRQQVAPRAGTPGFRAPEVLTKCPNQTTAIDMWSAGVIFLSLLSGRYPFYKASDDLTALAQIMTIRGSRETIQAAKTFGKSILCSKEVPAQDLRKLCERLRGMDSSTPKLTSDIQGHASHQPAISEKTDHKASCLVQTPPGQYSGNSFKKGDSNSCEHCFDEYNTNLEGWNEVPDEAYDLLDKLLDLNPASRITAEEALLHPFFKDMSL

| Compound | pIC50 [1] | pIC50 [2] | pIC50 [3] | pIC50 [4] | concentration at 1 h [5] [µM] | concentration at 4 h [6] [µM] |
| --- | --- | --- | --- | --- | --- | --- |
| Cc1cc(-c2cc(-c3ccccc3)nc(=O)[nH]2)ccc1O |  |  |  |  | 0.82 | 0.31 |
| CO[C@H]1CCN(Cc2nc3c(oc4ccc(Br)cc43)c(=O)[nH]2)C1 | 7.96 | 6.29 | 7.11 | 6.44 |  |  |
| O=C(O)C1CCN(Cc2nc3c(oc4ccc(Br)cc43)c(=O)[nH]2)C1 (racemic) | 7.89 | 7.31 | 6.85 | < 4.40 |  |  |
| O=c1[nH]c([C@@H]2C[C@@H](O)CN2)nc2c1oc1ccc(Br)cc12 | 8.04 | 6.38 | 7.14 | 6.36 |  |  |
| O=c1[nH]c([C@H]2CCCN2)nc2c1oc1ccc(Br)cc12 | 7.15 | 5.82 | 6.98 | 5.34 |  |  |
| O=c1[nH]c(CN2CC[C@H](O)C2)nc2c1oc1ccc3c(c12)OCO3 | 4.85 |  |  |  |  |  |
| O=c1[nH]c(CN2CC[C@H](O)C2)nc2c1oc1ccc(Cl)cc12 | 5.66 |  |  |  |  |  |
| O=c1[nH]c([C@@H]2C[C@@H](F)CN2)nc2c1oc1ccc(Br)cc12 | 8.43 | 6.62 | 7.34 | 7.09 | 82 | 46 |

The remaining lines, values ahead:

| pIC50 [1] | pIC50 [2] | pIC50 [3] | pIC50 [4] | concentration at 1 h [5] [µM] | concentration at 4 h [6] [µM] | Compound |
| --- | --- | --- | --- | --- | --- | --- |
| 8.11 | 7.37 | 7.74 | 5.60 |  |  | O=c1[nH]c(C2CNC2)nc2c1oc1ccc(Br)cc12 |
| 7.82 | 6.76 | 7.41 | 5.63 |  |  | O=c1[nH]c(C2CCCNC2)nc2c1oc1ccc(Br)cc12 (racemic) |
| 8.21 | 7.30 | 7.66 | 5.84 |  |  | O=c1[nH]c(C2CCNCC2)nc2c1oc1ccc(Br)cc12 |
